Results on twelve compounds are retold here after ChEMBL document CHEMBL1201862, “PubChem BioAssay data set” (2004).

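Where inhibition never reached the appropriate level, the endpoint shown equals the highest concentration tested. Otherwise, values were interpolated linearly from a five-concentration, 48-hour dose response in 96-well plates. Here, GI50 denotes the concentration required for 50% inhibition of growth.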 The source made the active and inactive calls. Cut-off read from the data, not from the text of the source: active = GI50 up to about 1.1 µM and inactive = higher. Some results are limits rather than exact numbers.

Holding throughout (test): NCI anticancer screen, dose series, 48 h
Experiment [1] concerns 786-0.
For experiment [2], the system named is A549.
Experiment [3] relates to CCRF-CEM.
For experiment [4], the system named is HCT-116.
Experiment [5] deals with HL-60.
In experiment [6] the test system is LOX IMVI.
Experiment [7] deals with NCI-H226.
The subject of experiment [8] is NCI-H23.
In experiment [9] the test system is NCI-H522.
Experiment [10] has as its system OVCAR-8.
Experiment [11] has as its system SF-268.
The subject of experiment [12] is SF-539.
Experiment [13] deals with SK-MEL-28.
Experiment [14] has as its system SR.
Experiment [15] has as its system UACC-257.
For experiment [16], the system named is UO-31.
The test system of experiment [17] is DU-145.
Experiment [18] concerns Hs-578T.
Experiment [19] relates to T47D.

`CN1C(=O)C(Cl)(C(Cl)(Cl)S(=O)(=O)O)C(=O)c2ccccc21.c1ccncc1` (stereo unspecified): the GI50 in experiment [1], in experiment [2], in [3], in [4], in [5] and in [6] was > 100 µM (inactive) throughout. Also, the GI50 in [7] was 33.7 µM (inactive); in experiment [8], > 100 µM (inactive); in experiment [9], 44.9 µM (inactive); in experiment [10] it was > 100 µM (inactive); in experiment [11] it was > 100 µM (inactive); in experiment [12] it was > 100 µM (inactive). Further, the GI50 was > 100 µM (inactive) in experiment [13], > 100 µM (inactive) in [14], > 100 µM (inactive) in [15] and 91.2 µM (inactive) in experiment [16].
For the compound `CC1(C)OC([C@H](O)CO)C([C@H]2NCCS2)O1` (stereo partly specified), the GI50 in experiment [1], in [2], in experiment [3], in [17], in experiment [4] and in experiment [5] was > 100 µM (inactive) throughout. The GI50 in experiment [18], in experiment [6], in [7], in experiment [8], in [9] and in experiment [10] was > 100 µM (inactive) throughout. Moreover, the GI50 in experiment [11], in experiment [13], in [14], in experiment [19], in experiment [15] and in [16] was > 100 µM (inactive) throughout.
As for `CCN(CC)c1ccc2c(c1)N=C1N=CC=CN1C2(c1ccc(N(C)C)cc1)c1ccc(N(C)C)cc1`, the GI50 in experiment [1] was 7.73 µM (inactive); in experiment [2], 12 µM (inactive); in experiment [3], 8.55 µM (inactive); in [4], 3.85 µM (inactive); in experiment [5], 1.43 µM (inactive); in [6] it was 5.25 µM (inactive). The GI50 was 10.8 µM (inactive) in experiment [7]; 6.95 µM (inactive) in [8]; 1.74 µM (inactive) in experiment [9]; 4.19 µM (inactive) in experiment [10]; 11 µM (inactive) in experiment [11]; 14.6 µM (inactive) in [12]. Also, the GI50 was 10.8 µM (inactive) in experiment [13], 3.61 µM (inactive) in [14], 5.24 µM (inactive) in experiment [15] and 7.48 µM (inactive) in experiment [16].
As for `Cc1c2ccccc2c(/C=N/NC(=O)CSCC(=O)N/N=C/c2c3ccccc3c(C)c3ccccc23)c2ccccc12`, the GI50 in [1] was 20.7 µM (inactive); in experiment [2], > 64.1 µM (inactive); in experiment [3], 34.2 µM (inactive); in experiment [17], > 55.8 µM (inactive); in [4] it was 55.6 µM (inactive); in [5], > 68.7 µM (inactive). Also, the GI50 was 46 µM (inactive) in experiment [18]; > 57.4 µM (inactive) in experiment [6]; > 44.7 µM (inactive) in experiment [7]; 11.4 µM (inactive) in [8]; 16.2 µM (inactive) in experiment [10]; 23.8 µM (inactive) in experiment [11]. For the same compound, the GI50 in experiment [12] is 18.1 µM (inactive); in experiment [13] it was > 60.7 µM (inactive); in experiment [19] it was > 25.6 µM (inactive); in experiment [15] it was 31.6 µM (inactive); in experiment [16] it was > 84.1 µM (inactive).
For the compound `CNS(=O)(=O)NNS(=O)(=O)c1ccc2ccccc2c1`, the GI50 in [1], in [2], in [3], in experiment [4], in experiment [5] and in experiment [6] was > 100 µM (inactive) in each case. The GI50 in [7], in [8], in experiment [9], in experiment [10], in experiment [11] and in experiment [12] was > 100 µM (inactive) throughout. Moreover, the GI50 in experiment [13] was > 100 µM (inactive); in experiment [14], 80.2 µM (inactive); in experiment [15], > 100 µM (inactive); in [16] it was > 100 µM (inactive).
Turning to `N=c1oc2ccc([N+](=O)[O-])cc2cc1C(=O)NCc1ccccc1`, the GI50 in [1] was 24.6 µM (inactive); in experiment [2], 57.1 µM (inactive); in [3] it was 27 µM (inactive); in experiment [17], 33 µM (inactive); in experiment [4] it was 16.3 µM (inactive); in experiment [5] it was 27.2 µM (inactive). In addition, the GI50 in [18] is 18.7 µM (inactive); in experiment [6], 17.7 µM (inactive); in [7] it was 12.9 µM (inactive); in experiment [9], 12.8 µM (inactive); in experiment [10] it was 15.2 µM (inactive); in experiment [11] it was 22.3 µM (inactive). The GI50 is 17.7 µM (inactive) in experiment [12]; 20.3 µM (inactive) in experiment [13]; 34.4 µM (inactive) in experiment [14]; 17.9 µM (inactive) in experiment [19]; 19.8 µM (inactive) in experiment [15]; 18 µM (inactive) in [16].
`C[C@H](OCc1ccccc1)C(=O)N1CCS(=O)(=O)N2CCC[C@H]2C1=O`: the GI50 in [1], in [2], in experiment [3], in experiment [4], in experiment [5] and in [6] was > 100 µM (inactive) in each case. The GI50 in [7], in experiment [8], in [9], in experiment [10], in experiment [11] and in experiment [12] was > 100 µM (inactive) in each case. Moreover, the GI50 in experiment [13], in [14], in experiment [15] and in [16] was > 100 µM (inactive) in each case.
As for `Cc1cc(O)nc(NNC(C#N)c2ccccc2O)n1` (stereo unspecified), the GI50 in [1] is 19.8 µM (inactive); in [2] it was 16.8 µM (inactive); in [3] it was 13.6 µM (inactive); in experiment [4], 19.3 µM (inactive); in experiment [5], 3.72 µM (inactive); in [6], 17.6 µM (inactive). Besides, the GI50 was 31.1 µM (inactive) in experiment [7]; 22.7 µM (inactive) in experiment [8]; 41.4 µM (inactive) in experiment [9]; 35.7 µM (inactive) in experiment [10]; 13 µM (inactive) in experiment [11]; 10.4 µM (inactive) in experiment [12]. The GI50 was 36.3 µM (inactive) in experiment [13], 4.3 µM (inactive) in experiment [14], 39 µM (inactive) in experiment [15] and 18.5 µM (inactive) in experiment [16].
For `Cn1c(=O)c2nc(/N=N/Nc3nncs3)[nH]c2n(C)c1=O`, the GI50 in [1], in experiment [2], in experiment [3], in [17], in experiment [4] and in experiment [18] was > 100 µM (inactive) throughout. The GI50 in experiment [6], in [8], in experiment [10], in experiment [11], in experiment [12] and in experiment [13] was > 100 µM (inactive) in each case. Moreover, the GI50 in experiment [19], in experiment [15] and in experiment [16] was > 100 µM (inactive) throughout.
`CCOc1ccc(/C=C\c2cc(OC)c(OC)c(OC)c2)cc1`: the GI50 in experiment [1] was 0.000216 µM (active); in [2] it was 0.0006 µM (active); in [3], 0.01 µM (active); in experiment [4], 0.00033 µM (active); in experiment [5], < 0.0001 µM (active); in experiment [6] it was 0.000291 µM (active). Also, the GI50 is 0.00218 µM (active) in [7]; 0.027 µM (active) in experiment [8]; < 0.0001 µM (active) in experiment [9]; 0.000456 µM (active) in [10]; 0.000625 µM (active) in [11]; 0.000102 µM (active) in experiment [12]. The GI50 in experiment [13] was 0.000235 µM (active); in experiment [14], 0.000931 µM (active); in experiment [15] it was 0.01 µM (active); in experiment [16], 0.00041 µM (active).
Take `COC(=O)c1ccccc1/N=C/c1ccc(N(CCC#N)S(=O)(=O)c2ccccc2)cc1`: the GI50 in experiment [1], in experiment [2], in experiment [3], in experiment [4], in experiment [5] and in experiment [6] was > 100 µM (inactive) each time. In addition, the GI50 in experiment [7], in experiment [8], in [9], in experiment [10], in experiment [11] and in experiment [12] was > 100 µM (inactive) throughout. The GI50 in [13], in experiment [14], in experiment [15] and in experiment [16] was > 100 µM (inactive) in each case.
As to `COc1ccc(/C=N/N=C(\N)NO)cc1OC`, the GI50 in experiment [1] was 31 µM (inactive); in experiment [2], 28.4 µM (inactive); in [3], 49.7 µM (inactive); in experiment [4], 42.8 µM (inactive); in [5], 63.1 µM (inactive); in experiment [6] it was 30.3 µM (inactive). Also, the GI50 in experiment [7] is 28.1 µM (inactive); in experiment [8], > 100 µM (inactive); in experiment [9] it was 26.3 µM (inactive); in experiment [10], 38.4 µM (inactive); in experiment [11], 20.4 µM (inactive); in experiment [12], 26.3 µM (inactive). Moreover, the GI50 in experiment [13] is > 100 µM (inactive); in [14], 24.9 µM (inactive); in experiment [15], 90.4 µM (inactive); in experiment [16] it was 28.1 µM (inactive).
